Results published in ChEMBL document CHEMBL1145390, “Synthesis and preliminary biological characterization of new semisynthetic derivatives of ramoplanin” (J Med Chem, 2007).
In brackets after ≈: the same amount, converted by molar mass. Activity calls are given as the source filed them. No cut-off for these calls is given here.

How the values were obtained:
[1] = system: Enterococcus faecalis; test: Antibacterial activity against Enterococcus faecalis after 24 hrs by broth microdilution method; type: functional; settings: read-out: MIC
[2] = system: Staphylococcus aureus; test: Antibacterial activity against methicillin-resistant Staphylococcus aureus clinical isolate after 24 hrs by broth microdilution method; type: functional; settings: read-out: MIC
[3] = system: Enterococcus faecalis; test: Antibacterial activity against vancomycin-resistant Enterococcus faecalis in presence of 30% bovine serum after 24 hrs by broth microdilution method; type: functional
[4] = system: Staphylococcus aureus; test: Antibacterial activity against Staphylococcus aureus Smith in presence of 30% bovine serum after 24 hrs by broth microdilution method; type: functional
[5] = system: Enterococcus faecium; test: Antibacterial activity against vancomycin A-resistant Enterococcus faecium clinical isolate in presence of 30% bovine serum after 24 hrs by broth microdilution method; type: functional
[6] = Toxicity assessed as hemolysis in erythrocytes at 300 mg/L; type: cell-based, Erythrocyte; settings: human, read-out: Activity
[7] = Toxicity assessed as hemolysis in erythrocytes at 180 mg/L; type: cell-based, Erythrocyte; settings: human, erythrocytes; read-out: Activity
[8] = system: Candida albicans; test: Antifungal activity against Candida albicans SKF-2270 after 24 hrs by broth microdilution method; type: functional; settings: read-out: MIC
[9] = system: Enterococcus faecalis; test: Antibacterial activity against vancomycin A-resistant Enterococcus faecalis after 24 hrs by broth microdilution method; type: functional; settings: read-out: MIC
[10] = Toxicity assessed as hemolysis in erythrocytes at 600 mg/L; type: cell-based, Erythrocyte; settings: human, read-out: Activity
[11] = system: Staphylococcus aureus; test: Antibacterial activity against vancomycin-intermediate resistant Staphylococcus aureus clinical isolate after 24 hrs by broth microdilution method; type: functional
[12] = system: Staphylococcus aureus; test: Antibacterial activity against methicillin-resistant and vancomycin-intermediate resistant Staphylococcus aureus clinical isolate after 24 hrs by broth microdilution method; type: functional; settings: read-out: MIC
[13] = Toxicity assessed as hemolysis in erythrocytes at 90 mg/L; type: cell-based, Erythrocyte; settings: human, erythrocytes; read-out: Activity
[14] = system: Escherichia coli; test: Antibacterial activity against Escherichia coli SKF-12140 after 24 hrs by broth microdilution method; type: functional; settings: read-out: MIC
[15] = Toxicity assessed as hemolysis in erythrocytes at 1200 mg/L; type: cell-based, Erythrocyte; settings: human, read-out: Activity
[16] = system: Staphylococcus aureus; test: Antibacterial activity against Staphylococcus aureus Smith after 24 hrs by broth microdilution method; type: functional; settings: read-out: MIC
[17] = system: Enterococcus faecium; test: Antibacterial activity against Enterococcus faecium after 24 hrs by broth microdilution method; type: functional; settings: for MIC: read-out: MIC
[18] = system: Staphylococcus aureus; test: Antibacterial activity against vancomycin-intermediate resistant Staphylococcus aureus clinical isolate in presence of 30% bovine serum after 24 hrs by broth microdilution method; type: functional
[19] = system: Enterococcus faecium; test: Antibacterial activity against vancomycin A-resistant Enterococcus faecium clinical isolate after 24 hrs by broth microdilution method; type: functional; settings: read-out: MIC
[20] = system: Streptococcus pyogenes; test: Antibacterial activity against Streptococcus pyogenes C203 after 24 hrs by broth microdilution method; type: functional; settings: C203, 24 h, read-out: MIC

| Structure (SMILES) | MIC [1] [µg/mL] | MIC [2] [µg/mL] | MIC [3] [µg/mL] | MIC [4] [µg/mL] | MIC [5] [µg/mL] | hemolysis at 300 mg/L [6] [%] | MIC [8] [µg/mL] | MIC [9] [µg/mL] | hemolysis at 600 mg/L [10] [%] | MIC [11] [µg/mL] | MIC [12] [µg/mL] | MIC [14] [µg/mL] | hemolysis at 1200 mg/L [15] [%] | MIC [16] [µg/mL] | MIC [17] [µg/mL] | MIC [18] [µg/mL] | MIC [19] [µg/mL] | MIC [20] [µg/mL] | further results |
| --- | --- | --- | --- | --- | --- | --- | --- | --- | --- | --- | --- | --- | --- | --- | --- | --- | --- | --- | --- |
| Cc1ccc(CC(=O)N[C@@H](CC(N)=O)C(=O)NC[C@@H]2C(=O)N[C@H](c3ccc(O)cc3)C(=O)N[C@H](CCCN)C(=O)N[C@H](C(C)C)C(=O)N[C@@H](c3ccc(O)cc3)C(=O)N[C@H](c3ccc(O)cc3)C(=O)N[C@@H]([C@@H](C)O)C(=O)N[C@@H](Cc3ccccc3)C(=O)N[C@H](CCCN)C(=O)N[C@@H](c3ccc(O[C@H]4O[C@H](CO)[C@@H](O)[C@H](O)[C@@H]4O[C@H]4O[C@H](CO)[C@@H](O)[C@H](O)[C@@H]4O)cc3)C(=O)N[C@H]([C@@H](C)O)C(=O)N[C@@H](c3ccc(O)cc3)C(=O)NCC(=O)N[C@@H](CC(C)C)C(=O)N[C@H](C)C(=O)N[C@@H](c3ccc(O)c(Cl)c3)C(=O)O[C@@H]2C(N)=O)cc1.Cl | 0.25 | ≤ 0.125 | 2 | 0.5 | 2 | 2 | > 128 | ≤ 0.125 | 11 | 2 | 4 | > 128 | 9 | ≤ 0.125 | 0.5 | 4 | 0.5 | ≤ 0.125 | hemolysis at 180 mg/L [7]: 0%; hemolysis at 90 mg/L [13]: 0% |
| Cc1cccc(CC(=O)N[C@@H](CC(N)=O)C(=O)NC[C@@H]2C(=O)N[C@H](c3ccc(O)cc3)C(=O)N[C@H](CCCN)C(=O)N[C@H](C(C)C)C(=O)N[C@@H](c3ccc(O)cc3)C(=O)N[C@H](c3ccc(O)cc3)C(=O)N[C@@H]([C@@H](C)O)C(=O)N[C@@H](Cc3ccccc3)C(=O)N[C@H](CCCN)C(=O)N[C@@H](c3ccc(O[C@H]4O[C@H](CO)[C@@H](O)[C@H](O)[C@@H]4O[C@H]4O[C@H](CO)[C@@H](O)[C@H](O)[C@@H]4O)cc3)C(=O)N[C@H]([C@@H](C)O)C(=O)N[C@@H](c3ccc(O)cc3)C(=O)NCC(=O)N[C@@H](CC(C)C)C(=O)N[C@H](C)C(=O)N[C@@H](c3ccc(O)c(Cl)c3)C(=O)O[C@@H]2C(N)=O)c1 | 0.25 (≈ 0.0976 µM) | 0.25 (≈ 0.0976 µM) | 1 | 1 | 4 | 0 | > 128 | ≤ 0.125 | 0 | 1 (≈ 0.39 µM) | 2 (≈ 0.781 µM) | > 128 | 5 | ≤ 0.125 | 0.5 (≈ 0.195 µM) | 4 | 0.5 (≈ 0.195 µM) | ≤ 0.125 | – |
| Cc1ccccc1C(C)C(=O)N[C@@H](CC(N)=O)C(=O)NC[C@@H]1C(=O)N[C@H](c2ccc(O)cc2)C(=O)N[C@H](CCCN)C(=O)N[C@H](C(C)C)C(=O)N[C@@H](c2ccc(O)cc2)C(=O)N[C@H](c2ccc(O)cc2)C(=O)N[C@@H]([C@@H](C)O)C(=O)N[C@@H](Cc2ccccc2)C(=O)N[C@H](CCCN)C(=O)N[C@@H](c2ccc(O[C@H]3O[C@H](CO)[C@@H](O)[C@H](O)[C@@H]3O[C@H]3O[C@H](CO)[C@@H](O)[C@H](O)[C@@H]3O)cc2)C(=O)N[C@H]([C@@H](C)O)C(=O)N[C@@H](c2ccc(O)cc2)C(=O)NCC(=O)N[C@@H](CC(C)C)C(=O)N[C@H](C)C(=O)N[C@@H](c2ccc(O)c(Cl)c2)C(=O)O[C@@H]1C(N)=O (stereo partly drawn) | 0.5 (≈ 0.194 µM) | 0.5 (≈ 0.194 µM) | 2 | 1 | 8 | 2 | > 128 | 1 (≈ 0.388 µM) | 4 | 2 (≈ 0.776 µM) | 4 (≈ 1.55 µM) | > 128 | 45 | 0.25 (≈ 0.097 µM) | – | 4 | 1 (≈ 0.388 µM) | ≤ 0.125 | Activity [17]: inactive |
| CC(C)C[C@@H]1NC(=O)CNC(=O)[C@H](c2ccc(O)cc2)NC(=O)[C@@H]([C@@H](C)O)NC(=O)[C@H](c2ccc(O[C@H]3O[C@H](CO)[C@@H](O)[C@H](O)[C@@H]3O[C@H]3O[C@H](CO)[C@@H](O)[C@H](O)[C@@H]3O)cc2)NC(=O)[C@@H](CCCN)NC(=O)[C@H](Cc2ccccc2)NC(=O)[C@H]([C@@H](C)O)NC(=O)[C@@H](c2ccc(O)cc2)NC(=O)[C@H](c2ccc(O)cc2)NC(=O)[C@@H](C(C)C)NC(=O)[C@@H](CCCN)NC(=O)[C@@H](c2ccc(O)cc2)NC(=O)[C@@H](CNC(=O)[C@H](CC(N)=O)NC(=O)Cc2ccccc2C(F)(F)F)[C@@H](C(N)=O)OC(=O)[C@H](c2ccc(O)c(Cl)c2)NC(=O)[C@@H](C)NC1=O | ≤ 0.125 | ≤ 0.125 | 0.5 | 1 | 2 | 3 | > 128 | – | 5 | 1 (≈ 0.382 µM) | 2 (≈ 0.764 µM) | > 128 | 51 | ≤ 0.125 | 0.5 (≈ 0.191 µM) | 4 | 0.25 (≈ 0.0956 µM) | ≤ 0.125 | – |
| Cc1cc(C)cc(CC(=O)N[C@@H](CC(N)=O)C(=O)NC[C@@H]2C(=O)N[C@H](c3ccc(O)cc3)C(=O)N[C@H](CCCN)C(=O)N[C@H](C(C)C)C(=O)N[C@@H](c3ccc(O)cc3)C(=O)N[C@H](c3ccc(O)cc3)C(=O)N[C@@H]([C@@H](C)O)C(=O)N[C@@H](Cc3ccccc3)C(=O)N[C@H](CCCN)C(=O)N[C@@H](c3ccc(O[C@H]4O[C@H](CO)[C@@H](O)[C@H](O)[C@@H]4O[C@H]4O[C@H](CO)[C@@H](O)[C@H](O)[C@@H]4O)cc3)C(=O)N[C@H]([C@@H](C)O)C(=O)N[C@@H](c3ccc(O)cc3)C(=O)NCC(=O)N[C@@H](CC(C)C)C(=O)N[C@H](C)C(=O)N[C@@H](c3ccc(O)c(Cl)c3)C(=O)O[C@@H]2C(N)=O)c1 | ≤ 0.125 | ≤ 0.125 | 1 | 1 | 2 | 0 | > 128 | – | 18 | 0.5 (≈ 0.194 µM) | 1 (≈ 0.388 µM) | > 128 | 87 | ≤ 0.125 | 0.25 (≈ 0.097 µM) | 4 | ≤ 0.125 | ≤ 0.125 | – |
| CC(C)C[C@@H]1NC(=O)CNC(=O)[C@H](c2ccc(O)cc2)NC(=O)[C@@H]([C@@H](C)O)NC(=O)[C@H](c2ccc(O[C@H]3O[C@H](CO)[C@@H](O)[C@H](O)[C@@H]3O[C@H]3O[C@H](CO)[C@@H](O)[C@H](O)[C@@H]3O)cc2)NC(=O)[C@@H](CCCN)NC(=O)[C@H](Cc2ccccc2)NC(=O)[C@H]([C@@H](C)O)NC(=O)[C@@H](c2ccc(O)cc2)NC(=O)[C@H](c2ccc(O)cc2)NC(=O)[C@@H](C(C)C)NC(=O)[C@@H](CCCN)NC(=O)[C@@H](c2ccc(O)cc2)NC(=O)[C@@H](CNC(=O)[C@H](CC(N)=O)NC(=O)Cc2ccccc2[N+](=O)[O-])[C@@H](C(N)=O)OC(=O)[C@H](c2ccc(O)c(Cl)c2)NC(=O)[C@@H](C)NC1=O | 2 (≈ 0.771 µM) | 1 (≈ 0.386 µM) | 2 | 1 | 8 | 1 | > 128 | 1 (≈ 0.386 µM) | 0 | 2 (≈ 0.771 µM) | 4 (≈ 1.54 µM) | > 128 | 0 | 0.5 (≈ 0.193 µM) | 4 (≈ 1.54 µM) | 4 | 2 (≈ 0.771 µM) | ≤ 0.125 | – |
